Literature values, collected in patent US20030064122A1 (priority 2001, published 2003).

Tested on: nasal mucosa of men and women
Settings: introduced to the nasal mucosa of men and women

For `COc1cc(CNC(=O)CCCCC=CC(C)C)ccc1O` [Capsaicin, 8-Methyl-N-vanillyl-6-nonenamide], the “amount shown to induce secretion, sneezing, and/or cough” value is listed as 75 micrograms.
